How the values were obtained:
[1] = biological target: T1, human estrogen receptor α (hERα) (Homo sapiens, UniProt P03372); assay: antagonistic activity in CHO cells co-transfected with hERα, rat oxytocin promoter and luciferase reporter gene; assay type: cell-based; conditions: antagonism of 17β-estradiol-induced transactivation, CHO-hERα-RO-LUC; read-out: ERα pIC50 (converted)
T1 sequence (P03372 1-595): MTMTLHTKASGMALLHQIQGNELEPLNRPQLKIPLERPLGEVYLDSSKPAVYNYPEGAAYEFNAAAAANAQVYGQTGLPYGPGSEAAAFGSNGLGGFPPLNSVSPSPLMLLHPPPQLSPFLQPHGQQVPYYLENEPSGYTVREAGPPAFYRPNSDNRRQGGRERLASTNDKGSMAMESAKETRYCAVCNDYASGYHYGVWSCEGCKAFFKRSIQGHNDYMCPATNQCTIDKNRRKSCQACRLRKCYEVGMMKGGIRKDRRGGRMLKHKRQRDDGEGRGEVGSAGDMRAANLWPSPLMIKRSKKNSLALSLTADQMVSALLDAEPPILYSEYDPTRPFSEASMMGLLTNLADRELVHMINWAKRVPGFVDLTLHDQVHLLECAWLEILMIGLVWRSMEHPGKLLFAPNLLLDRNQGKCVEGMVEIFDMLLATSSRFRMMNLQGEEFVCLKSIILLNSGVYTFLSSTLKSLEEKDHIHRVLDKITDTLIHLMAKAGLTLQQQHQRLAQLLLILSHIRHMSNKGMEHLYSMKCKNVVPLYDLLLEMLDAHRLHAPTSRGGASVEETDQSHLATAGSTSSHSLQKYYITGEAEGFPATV
Method in brief: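 Efficacy is the fraction of maximal inhibition of 17β-estradiol-activated receptor, normalised to ICI 164,384 maximal inhibition. Read-out is luciferase in CHO cells stably co-transfected with human ERα and an oxytocin-promoter-driven reporter.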

[2] = biological target: T2, estrogen receptor alpha (Homo sapiens, UniProt P03372); assay: ERα downregulation assay in T47D breast cancer cells (ERα ELISA); assay type: cell-based; conditions: downregulation of ERα relative to fulvestrant (100%), 1E-5 M, 24 hours, negative = upregulation
T2 construct: endogenous in cells; host or cells: T47D human breast cancer cells (ATCC)
T2 sequence (P03372 1-595): T1 sequence (P03372 1-595)
Method in brief: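 T47D cells were treated with 1E-5 M test compound for 24 hours, then lysed in the well. ERα protein content was measured by ELISA. Efficacy is given as fraction of maximal response relative to fulvestrant, defined as 100% downregulation.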

[3] = Rapid Rat PK after oral administration; assay type: in vivo, rats (Rattus Norvegicus); conditions: 20 umol/kg, plasma, oral 20 μmol/kg; for AUC: AUC(0-6h), read-out: RRat AUC; for Cmax: read-out: RRat Cmax
Protocol: In the context of the present invention with “orally bioavailable” is meant that compounds, when dosed orally to a rat show oral exposure as determined by quantification of compound plasma levels in that rat. Typically, compounds are dosed orally at 20 μmol/kg, as described in Example 14 hereinbelow. Oral exposure is determined by measuring plasma levels over the time range of 0-6 h after dosing and is expressed by AUC(0-6h).
This test was used to determine the pharmacokinetic parameters (AUC(0-6h), Cmax and Tmax) after oral administration of compounds in male (intact or castrated) or female (intact or ovariectomized) rats (Rattus Norvegicus).
After oral administration of a compound at 20 μmol/kg, blood was collected at various time points (0.5, 1, 2, 3, 4 and 6 hours after compound administration) via the tail vein. Plasma samples were pooled per time point, after which the concentration was determined in plasma by means of LC-MS. Pharmacokinetic parameters (AUC(0-6h), Cmax and Tmax) were derived from the obtained concentration versus time curves using the non-compartmental analysis module in Animals! or WinNonlin.

[4] = tested on: MCF-7H cells; assay: 7-day in vitro proliferation assay in tamoxifen-resistant MCF-7H breast cancer cells (methyl-3H-thymidine incorporation); assay type: cell-based, human; conditions: Homo sapiens, MCF7, 168 h; efficacy (fraction of maximal response relative to E2) in MCF-7H proliferation; read-out: MCF7 ia
Protocol: To what extent compounds are capable of stimulating proliferation in ER-positive, tamoxifen-resistant breast cancer cells is tested in a 7-day in vitro proliferation assay using MCF-7H cells. More specifically, this in vitro bioassay is used to determine the efficacy (fraction of maximal response), pEC50, and relative potency of the compound to induce proliferation by comparing the data for this compound with those of the reference compound 17β-estradiol (E2) in the same test.
A more detailed description of the method used is as follows.
Cell culture: The human epithelial breast cancer cell line MCF-7H (origin: Hubrecht Laboratory, Utrecht, The Netherlands) was routinely maintained in complete medium which is a 1:1 mixture of Ham's F12 medium and Dulbecco's Modified Eagle Medium (DMEM; Invitrogen, Carlsbad, USA) without phenol red and enriched with 5% fetal calf serum (FCS; Hyclone, Utah, USA), 100 μg/ml streptomycin and 100 units/ml penicillin adapted to contain:
Cells were grown in 80 cm^2 culture flasks (Nunc, Roskilde, Denmark) and kept in an atmosphere of 5% CO2-95% air at 37 degrees Celsius. Cells were subcultured when they reached about 80-90% confluence, resulting in one passage a week. Subculturing includes detaching the cells using trypsin/EDTA and diluting the cell suspension 10 times.
Methyl-^3H-thymidine incorporation assay: MCF-7H cells were starved overnight in assay medium containing 5% charcoal-treated (CT) bovine calf serum (BCS; Hyclone) instead of FCS and a final concentration of 1.0 μg/ml bovine insulin, the day before plating. Cells were plated in assay medium containing 5% CT BCS, in white 24-wells plates (Perkin Elmer, Shelton, USA), at a density of 7.5×10^3 cells per well, each well containing 630 μL assay medium. Cells were allowed to attach and spread for 24 h before stimulation with reference and/or test compound(s). After a stimulation period of 7 days, 0.25 μCi/well of methyl-^3H-thymidine (GE Healthcare Limited, Buckinghamshire, UK) was added per well. Cultures were maintained in an atmosphere of 5% CO2-95% air at 37 degrees Celsius. After overnight incubation, excess methyl-^3H-thymidine was aspirated and the cells were washed with phosphate-buffered saline (PBS). After 1 h of incubation with 1 ml scintillation fluid Microscint-20 (Perkin Elmer), radioactivity was measured in a Packard TOP-count NXT microplate scintillation counter (Perkin Elmer).

Structure (SMILES) | IC50 [1] | DR (%) [2] | AUC [3] | Cmax [3] | Emax [4]
CCCN1CC(Oc2ccc(C(=C(CC)c3ccccc3)c3cccc(O)c3)cc2)C1 (mixture of isomers) [compound 6w, (E/Z)-3-(2-phenyl-1-(4-(1-propylazetidin-3-yloxy)phenyl)but-1-enyl)phenol] | 5.01 nM | 63% | 1.07 µM·h | 230 nM | 
CCCN1CC(Oc2ccc(-c3c(-c4ccc(O)cc4)sc4cc(O)ccc34)cc2)C1.O=C(O)C(F)(F)F [compound 6b, 2-(4-hydroxyphenyl)-3-(4-(1-propylazetidin-3-yloxy)phenyl)benzo[b]thiophen-6-ol 2,2,2-trifluoroacetate] | 0.794 nM | 53% |  |  | 10%
CCCN1CC(Oc2ccc(C(=C(CC)c3ccccc3)c3ccccc3)cc2)C1.O=C(O)C(F)(F)F [compound 6u, 3-(4-(1,2-diphenylbut-1-enyl)phenoxy)-1-propylazetidine 2,2,2-trifluoroacetate] | 31.6 nM | 75% | 1.97 µM·h | 450 nM | 8%
CCCN1CC(Oc2ccc(-c3c(-c4ccccc4Cl)noc3-c3ccc(O)cc3)cc2)C1 [compound 6g, 4-(4-(4-(N-propylazetidin-3-yloxy)phenyl)-3-(2-chlorophenyl)isoxazol-5-yl)-phenol] | 0.251 nM | 57% | 2.05 µM·h | 570 nM | 2%
CCCN1CC(Oc2ccc(C(=O)c3c(-c4ccc(O)cc4)sc4cc(O)ccc34)cc2)C1.O=C(O)C(F)(F)F [compound 6d, (6-hydroxy-2-(4-hydroxyphenyl)benzo[b]thiophen-3-yl)(4-(1-propylazetidin-3-yloxy)phenyl)methanone 2,2,2-trifluoroacetate] | 1.58 nM | 79% |  |  | 5%
CCCN1CC(Oc2ccc(C(=O)c3c(-c4ccccc4Cl)noc3-c3ccc(O)cc3)cc2)C1.Cl [compound 6m, (3-(2-chlorophenyl)-5-(4-hydroxyphenyl)isoxazol-4-yl)(4-(1-propylazetidin-3-yloxy)phenyl)methanone hydrochloride] | 2 nM | 81% |  |  | 7%
CCCN1CC(Oc2ccc([C@@H]3c4ccc(O)cc4CC[C@@H]3c3ccccc3)cc2)C1.Cl [compound 6q, (5R,6S)-6-phenyl-5-(4-(1-propylazetidin-3-yloxy)phenyl)-5,6,7,8-tetrahydronaphthalen-2-ol hydrochloride] | 0.251 nM | 47% |  |  | 6%

More lines, main results first:

IC50 [1] | DR (%) [2] | AUC [3] | Cmax [3] | Structure (SMILES) | Emax [4]
25.1 nM | 84% | 3.8 µM·h | 990 nM | CCCN1CC(Oc2ccc(C(O)c3c(-c4ccccc4Cl)noc3-c3ccc(O)cc3)cc2)C1 (stereo not shown) [compound 7av, 4-(3-(2-chlorophenyl)-4-(hydroxy(4-(1-propylazetidin-3-yloxy)phenyl)methyl)isoxazol-5-yl)phenol] | 
0.316 nM | 32% | 1.55 µM·h | 520 nM | CC(C)CN1CC(Oc2ccc(-c3c(-c4ccccc4Cl)noc3-c3ccc(O)cc3)cc2)C1.Cl [compound 7w, 4-(3-(2-chlorophenyl)-4-(4-(1-isobutylazetidin-3-yloxy)phenyl)isoxazol-5-yl)-phenol hydrochloride] | 
6.31 nM | 88% |  |  | CCCN1CC(Oc2ccc(C(=O)c3c(-c4ccc(O)cc4)noc3-c3ccccc3C)cc2)C1.Cl [compound 7az, (3-(4-hydroxyphenyl)-5-o-tolylisoxazol-4-yl)(4-(1-propylazetidin-3-yloxy)-phenyl)methanone hydrochloride] | 8%
0.398 nM | 58% | 1.03 µM·h | 350 nM | Cl.Oc1ccc(-c2onc(-c3ccccc3Cl)c2-c2ccc(OC3CN(CC4CCC4)C3)cc2)cc1 [compound 7z, 4-(3-(2-chlorophenyl)-4-(4-(1-(cyclobutylmethyl)azetidin-3-yloxy)phenyl)-isoxazol-5-yl)phenol hydrochloride] | 
1 nM | 93% | 3.58 µM·h | 990 nM | Cl.Oc1ccc(-c2onc(-c3ccccc3Cl)c2-c2ccc(OC3CN(CCCF)C3)cc2)cc1 [compound 7aa, 4-(3-(2-chlorophenyl)-4-(4-(1-(3-fluoropropyl)azetidin-3-yloxy)phenyl)isoxazol-5-yl)phenol hydrochloride] | 
2 nM | 90% |  |  | CCCN1CC(Oc2ccc(C(=O)c3c(-c4ccccc4C)nsc3-c3ccc(O)cc3)cc2)C1.Cl [compound 7bb, (5-(4-hydroxyphenyl)-3-o-tolylisothiazol-4-yl)(4-(1-propylazetidin-3-yloxy)-phenyl)methanone hydrochloride] | 3%
2.51 nM | 94% |  |  | O=C(c1ccc(OC2CN(CCCF)C2)cc1)c1c(-c2ccccc2Cl)noc1-c1ccc(O)cc1 [compound 7ah] | 6%
0.316 nM | 57% | 1.2 µM·h | 290 nM | Cl.Oc1ccc(-c2onc(-c3ccccc3Cl)c2-c2ccc(OC3CN(CC4CC4)C3)cc2)cc1 [compound 7y, 4-(3-(2-chlorophenyl)-4-(4-(1-(cyclopropylmethyl)azetidin-3-yloxy)phenyl)-isoxazol-5-yl)phenol hydrochloride] | 
3.16 nM | 93% |  |  | CCCN1CC(Oc2ccc(C(=O)c3c(-c4c(F)cccc4F)noc3-c3ccc(O)cc3)cc2)C1.Cl [compound 7ak, (3-(2,6-difluorophenyl)-5-(4-hydroxyphenyl)isoxazol-4-yl)(4-(1-propylazetidin-3-yloxy)phenyl)methanone hydrochloride] | 7%
